Molecular target: T1, His-tagged human recombinant DDR-2 kinase domain (His-TEV-DDR2 467-855 aa) (Homo sapiens, UniProt Q16832)
T1 construct: His-TEV-DDR2 467-855 aa
T1 sequence (Q16832 467-855): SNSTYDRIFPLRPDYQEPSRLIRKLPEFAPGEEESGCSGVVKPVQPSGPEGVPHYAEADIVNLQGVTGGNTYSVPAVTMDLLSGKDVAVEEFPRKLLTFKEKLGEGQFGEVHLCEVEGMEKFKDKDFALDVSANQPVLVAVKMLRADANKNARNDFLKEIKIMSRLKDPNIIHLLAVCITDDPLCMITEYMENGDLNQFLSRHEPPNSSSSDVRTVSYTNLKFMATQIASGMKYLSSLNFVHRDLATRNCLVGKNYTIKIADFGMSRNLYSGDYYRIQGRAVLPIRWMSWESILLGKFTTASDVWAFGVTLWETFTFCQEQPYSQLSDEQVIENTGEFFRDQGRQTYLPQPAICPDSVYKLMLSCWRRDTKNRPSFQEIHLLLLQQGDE
Assay: Autophosphorylation assay for biochemical activity testing of DDR2 (HTRF)
Method: The autophosphorylation assay was run in two steps: the enzymatic reaction in which His-tagged DDR2 with ATP as co-substrate phosphorylates itself and the detection reaction where a time resolved FRET between XL665® labelled anti-6His antibody bound to the His-tag of the enzyme and cryptate labelled anti-phospho-Tyrosine-antibody (PT66) bound the phosphorylated Tyrosine residue of DDR2 was analysed. The autophosphorylation activity was detectable directly via the increase in HTRF signal.
The autophosphorylation assay was performed as 1536 well or 384 well HTRF® (Cisbio, Codolet, France) assay format in Greiner low volume medium binding 384-well microtiter plates and was used for high throughput screen. […] The ratio of the emission signals was determined. The full value used was the inhibitor-free reaction.

[1] = biochemical DDR2 autophosphorylation
[2] = 4 nM DDR2 kinase domain, 150 μM ATP, 150 min at 22° C.

Structure (SMILES) | IC50 [1] [nM] | IC50 [2] [nM]
COc1cc(Cl)c(C)cc1NC(=O)NCc1ccc(Oc2ccnc(C(=O)NCCCCCCN)c2)cc1 [compound 126, 4-{4-[3-(4-Chloro-2-methoxy-5-methyl-phenyl)-ureidomethyl]-phenoxy}-pyridine-2-carboxylic acid (6-amino-hexyl)-amide] | 150 | –
CCN(CC)CCOc1cc(Cl)c(C(F)(F)F)cc1NC(=O)NCc1ccc(Oc2ccnc(C(=O)NC)c2)cc1 [compound 132, 4-(4-{3-[4-Chloro-2-(2-diethylamino-ethoxy)-5-trifluoromethyl-phenyl]-ureidomethyl}-phenoxy)-pyridine-2-carboxylic acid methylamide] | 125 | –
Cc1cc2nccc(Oc3ccc(CNC(=O)Nc4cc(C)c(Cl)cc4OCCN(C)C)cc3C)c2o1 [compound 253, 1-[4-Chloro-2-(2-dimethylamino-ethoxy)-5-methyl-phenyl]-3-[3-methyl-4-(2-methyl-furo[3,2-b]pyridin-7-yloxy)-benzyl]-urea] | 70 | –
CSc1cccc(NC(=O)NCc2ccc(Oc3ccncc3)cc2)c1 [compound 34] | 5500 | –
CNC(=O)c1cc(Oc2ccc(CNC(=O)Nc3cc(C(F)(F)F)ccc3OC)c(C)c2)ccn1 [compound 105, 4-{4-[3-(2-Methoxy-5-trifluoromethyl-phenyl)-ureidomethyl]-3-methyl-phenoxy}-pyridine-2-carboxylic acid methylamide] | 180 | –
CNC(=O)c1cc(Oc2ccc(CNC(=O)Nc3cc(C(F)(F)F)c(Cl)cc3OCCN3CCCC3)cc2)ccn1 [compound 129, 4-(4-{3-[4-Chloro-2-(2-pyrrolidin-1-yl-ethoxy)-5-trifluoromethyl-phenyl]-ureidomethyl}-phenoxy)-pyridine-2-carboxylic acid methylamide] | 250 | –
CNC(=O)c1cc(Oc2ccc(CNC(=O)Nc3cc(C(F)(F)F)ccc3OC)cc2)ccn1 [compound 63, 4-{4-[3-(2-Methoxy-5-trifluoromethyl-phenyl)-ureidomethyl]-phenoxy}-pyridine-2-carboxylic acid methylamide] | 61 | –
COc1ccc(C(F)(F)F)cc1NC(=O)NCc1ccc(Oc2ccncc2)cc1 [compound 62, 1-(2-Methoxy-5-trifluoromethyl-phenyl)-3-[4-(pyridin-4-yloxy)-benzyl]-urea] | 2 | –
CNC(=O)c1cc(Oc2ccc(CNC(=O)Nc3cccnc3OC)cc2)ccn1 [compound 87, 4-{4-[3-(2-Methoxy-pyridin-3-yl)-ureidomethyl]-phenoxy}-pyridine-2-carboxylic acid methylamide] | 1600 | –
Cc1ccc(NC(=O)NCc2ccc(Oc3ccncc3)cc2)c(C)c1 [compound 30] | 28000 | –
CNC(=O)c1cc(Oc2ccc(CNC(=O)Nc3cc(C(F)(F)F)ccc3OCCOC)cc2)ccn1 [compound 166, 4-(4-{3-[2-(2-Methoxy-ethoxy)-5-trifluoromethyl-phenyl]-ureidomethyl}-phenoxy)-pyridine-2-carboxylic acid methylamide] | 140 | –
CC(=O)c1ccc(NC(=O)NCc2ccc(Oc3ccncc3)cc2)cc1 [compound 47, 1-(4-Acetyl-phenyl)-3-[4-(pyridin-4-yloxy)-benzyl]-urea] | 8800 | –
O=C(NCc1ccc(Oc2ccncc2)cc1)Nc1cccc(Br)c1 [compound 53, 1-(3-Bromo-phenyl)-3-[4-(pyridin-4-yloxy)-benzyl]-urea] | 56 | –
CNC(=O)c1cc(Oc2ccc(CNC(=O)Nc3cc(C(F)(F)F)ccc3OCCN3CCOCC3)cc2)ccn1 [compound 109, 4-(4-{3-[2-(2-Morpholin-4-yl-ethoxy)-5-trifluoromethyl-phenyl]-ureidomethyl}-phenoxy)-pyridine-2-carboxylic acid methylamide] | 72 | –
CCc1ccc(NC(=O)NCc2ccc(Oc3ccncc3)cc2)cc1 [compound 52, 1-(4-Ethyl-phenyl)-3-[4-(pyridin-4-yloxy)-benzyl]-urea] | 9900 | –
CCOc1ccc(NC(=O)NCc2ccc(Oc3ccncc3)cc2)cc1 [compound 41, 1-(4-Ethoxy-phenyl)-3-[4-(pyridin-4-yloxy)-benzyl]-urea] | ≥ 100000 | –
Cc1cccc(NC(=O)NCc2ccc(Oc3ccncc3)cc2)c1C [compound 24] | ≥ 100000 | –
CNC(=O)c1cc(Oc2ccc(CNC(=O)Nc3cc(Cl)cnc3Cl)cc2)ccn1 [compound 93, 4-{4-[3-(2,5-Dichloro-pyridin-3-yl)-ureidomethyl]-phenoxy}-pyridine-2-carboxylic acid methylamide] | 42 | –
CNC(=O)c1cc(Oc2ccc(CNC(=O)Nc3cc(C(F)(F)F)ccc3OCCO)cc2)ccn1 [compound 197, 4-(4-{3-[2-(2-Hydroxy-ethoxy)-5-trifluoromethyl-phenyl]-ureidomethyl}-phenoxy)-pyridine-2-carboxylic acid methylamide] | 96 | –

Structure (SMILES) | IC50 [1] [nM] | IC50 [2] [nM]
Cc1cc(Cl)ccc1NC(=O)NCc1ccc(Oc2ccncc2)cc1 [compound 54, 1-(4-Chloro-2-methyl-phenyl)-3-[4-(pyridin-4-yloxy)-benzyl]-urea] | ≥ 100000 | –
CNC(=O)c1cc(Oc2ccc(CNC(=O)Nc3cc(OC)c([N+](=O)[O-])cc3OC)cc2)ccn1 [compound 81, 4-{4-[3-(2,5-Dimethoxy-4-nitro-phenyl)-ureidomethyl]-phenoxy}-pyridine-2-carboxylic acid methylamide] | 230 | –
CNC(=O)c1cc(Oc2ccc(CNC(=O)Nc3ncc(C(F)(F)F)cc3Cl)cc2)ccn1 [compound 91, 4-{4-[3-(3-Chloro-5-trifluoromethyl-pyridin-2-yl)-ureidomethyl]-phenoxy}-pyridine-2-carboxylic acid methylamide] | 6600 | –
Cc1cc(Oc2ccc(CNC(=O)Nc3cnc4ccccc4c3)cc2C)ccn1 [compound 32] | – | 7100
Cc1ccc(Cl)cc1NC(=O)NCc1ccc(Oc2ccncc2)cc1 [compound 50, 1-(5-Chloro-2-methyl-phenyl)-3-[4-(pyridin-4-yloxy)-benzyl]-urea] | 1700 | –
CNC(=O)c1cc(Oc2ccc(CNC(=O)Nc3cc(C)c(Cl)cc3OCCN3CCCC3)c(C)c2)ccn1 [compound 134, 4-(4-{3-[4-Chloro-5-methyl-2-(2-pyrrolidin-1-yl-ethoxy)-phenyl]-ureidomethyl}-3-methyl-phenoxy)-pyridine-2-carboxylic acid methylamide] | 1200 | –
O=C(NCc1ccc(Oc2ccncc2)cc1)Nc1cccc(C(F)(F)F)c1 [compound 4] | 36 | –
O=C(NCc1ccc(Oc2ccncc2)cc1)Nc1ccc(F)c(C(F)(F)F)c1 [compound 46, 1-(4-Fluoro-3-trifluoromethyl-phenyl)-3-[4-(pyridin-4-yloxy)-benzyl]-urea] | 100 | –
O=C(NCc1ccc(Oc2ccncc2)cc1)Nc1ccccc1Cl [compound 33] | ≥ 100000 | –
CNC(=O)c1cc(Oc2ccc(CNC(=O)Nc3ccc(Cl)cc3OC)cc2)ccn1 [compound 79, 4-{4-[3-(4-Chloro-2-methoxy-phenyl)-ureidomethyl]-phenoxy}-pyridine-2-carboxylic acid methylamide] | 410 | –
COc1ccccc1NC(=O)NCc1ccc(Oc2ccncc2)cc1 [compound 36, 1-(2-Methoxy-phenyl)-3-[4-(pyridin-4-yloxy)-benzyl]-urea] | 1700 | –
CNC(=O)c1cc(Oc2ccc(CNC(=O)Nc3cc(Cl)c(C)cc3OCCN)cc2)ccn1 [compound 176, 4-(4-{3-[2-(2-Amino-ethoxy)-5-chloro-4-methyl-phenyl]-ureidomethyl}-phenoxy)-pyridine-2-carboxylic acid methylamide] | 27 | –
CNC(=O)c1cc(Oc2ccc(CNC(=O)Nc3cc(Cl)c(C)cc3OC)cc2F)ccn1 [compound 216, 4-{4-[3-(5-Chloro-2-methoxy-4-methyl-phenyl)-ureidomethyl]-2-fluoro-phenoxy}-pyridine-2-carboxylic acid methylamide] | 43 | –
CNC(=O)c1cc(Oc2ccc(CNC(=O)Nc3cc(C(F)(F)F)ccc3OCCNS(C)(=O)=O)cc2)ccn1 [compound 180, 4-(4-{3-[2-(2-Methanesulfonylamino-ethoxy)-5-trifluoromethyl-phenyl]-ureidomethyl}-phenoxy)-pyridine-2-carboxylic acid methylamide] | 32 | –
CNC(=O)c1cc(Oc2ccc(CNC(=O)Nc3ccccn3)cc2)ccn1 [compound 3] | – | 3800
CNC(=O)c1cc(Oc2ccc(CNC(=O)Nc3cc(C)ccn3)cc2C)ccn1 [compound 15] | – | 400
CNC(=O)c1cc(Oc2ccc(CNC(=O)Nc3cc(C)c(Cl)cc3OCCNC(=O)C(F)(F)F)cc2)ccn1 [compound 187, 4-[4-(3-{4-Chloro-5-methyl-2-[2-(2,2,2-trifluoro-acetylamino)-ethoxy]-phenyl}-ureidomethyl)-phenoxy]-pyridine-2-carboxylic acid methylamide] | 660 | –
CNC(=O)c1cc(Oc2ccc(CNC(=O)Nc3cc(C(F)(F)F)c(Cl)cc3OC)cc2)ccn1 [compound 67, 4-{4-[3-(4-Chloro-2-methoxy-5-trifluoromethyl-phenyl)-ureidomethyl]-phenoxy}-pyridine-2-carboxylic acid methylamide] | 175 | –

Reference: US20150225369A1, “DDR2 INHIBITORS FOR THE TREATMENT OF OSTEOARTHRITIS” (Merck Patent GmbH, priority 2012, published 2015)
